Source: patent publication US20080280891A1, “Anti-cancer agents and uses thereof” (Locus Pharmaceuticals, Inc., priority 2006, published 2008)

How the values were obtained:
Assay type in all cases: cell-based
Jurkat cells = assay: Cell viability assay (WST-1), Jurkat cells; details: Homo sapiens, WST-1, 48-72 hrs, 0.5% fetal calf serum
Method: (§1) Jurkat and Hela cells were cultured in RPMI and EMEM media, respectively, containing 0.5% fetal calf serum. Cells were plated in a volume of 100 μL in a 96 well format. Test compounds were included in the culture media at concentrations ranging from 1 nM to 10 μM for a period of 48-72 hrs. Cell viability was determined using the WST-1 calorimetric mitochondrial reduction assay. Briefly, 10 μL of WST-1 reagent was included in the culture well for a period of 1 to 4 hrs. The WST-1 reaction was read on a multiwell spectrophotometer as the difference in the absorbance between 450 nm and 600 nm (baseline). Absorbance was proportional to the number of living cells in the culture well. Concentration response curves and IC50 values were calculated using GraphPAD Prism graphing and curve fitting program.

[1] = test system: Jurkat T-cell leukemic cells; assay: Cell cycle assay (Example 163), G2/M block in Jurkat cells; details: Homo sapiens, Jurkat, 24 h, flow cytometry (PI), Table 2
Hela cells = assay: Cell viability assay (WST-1), Hela cells; details: Homo sapiens, HeLa, WST-1, 48-72 hrs, 0.5% fetal calf serum
Method: as §1

[2] = test system: MCF-7 breast cancer cells; assay: Cell cycle assay (Example 163), G2/M block in MCF-7 cells; details: Homo sapiens, MCF7, 24 h, flow cytometry (PI), Table 2

| Compound | IC50 (Jurkat cells) | IC50 (Hela cells) | activation at 0.1 µM [1] | activation at 1 µM [2] |
| --- | --- | --- | --- | --- |
| Oc1cc(Nc2cccnc2)cc(-c2cccc3cn[nH]c23)c1 [3-(1H-Indazol-7-yl)-5-(pyridin-3-ylamino)-phenol] | 1 to 999 nM | 1000 to 30000 nM | < 50% | < 50% |
| Oc1cc(Nc2cccnc2)cc(-c2ccccc2C(F)(F)F)c1 [5-(Pyridin-3-ylamino)-2′-trifluoromethyl-biphenyl-3-ol] | > 3000 nM | 1000 to 30000 nM | ≥ 50% | < 50% |
| N#Cc1cnc(Nc2cc(O)cc(-c3cccc4[nH]ccc34)c2)cn1 [5-[3-Hydroxy-5-(1H-indol-4-yl)-phenylamino]-pyrazine-2-carbonitrile] | > 3000 nM | 1000 to 30000 nM | < 50% | ≥ 50% |

Now from value to compound, other results behind:

| IC50 (Jurkat cells) | IC50 (Hela cells) | Compound | activation at 0.1 µM [1] | activation at 1 µM [2] |
| --- | --- | --- | --- | --- |
| 1 to 999 nM | 1 to 999 nM | O=C(c1cc(O)cc(-c2cccc3[nH]ccc23)c1)c1cnccn1 [[3-Hydroxy-5-(1H-indol-4-yl)-phenyl]-pyrazin-2-yl-methanone] | < 50% | < 50% |
| 1000 to 30000 nM | > 3000 nM | O=C(c1ccc(CO)nc1)c1cc(O)cc(-c2cccc3[nH]ccc23)c1 [[3-Hydroxy-5-(1H-indol-4-yl)-phenyl]-(6-hydroxymethyl-pyridin-3-yl)-methanone] | < 50% | < 50% |
| 1000 to 30000 nM | > 3000 nM | O=C(c1cccnc1)c1ccc(O)c(C23CC4CC(CC(C4)C2)C3)c1 [(3-Adamantan-1-yl-4-hydroxy-phenyl)-pyridin-3-yl-methanone] | < 50% | < 50% |
| 1 to 999 nM | 1000 to 30000 nM | Nc1ccc(C(=O)c2cc(O)cc(-c3cccc4[nH]ccc34)c2)cn1 [(6-Amino-pyridin-3-yl)-[3-hydroxy-5-(1H-indol-4-yl)-phenyl]-methanone] | < 50% | ≥ 50% |
